Measurements published in ChEMBL document CHEMBL1201862, “PubChem BioAssay data set” (2004).
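Briefly, cells in 96-well plates were exposed to five compound concentrations for 48 h, and endpoints were estimated by linear interpolation. Abbreviation: GI50, concentration required for 50% inhibition of growth.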 The source made the active and inactive calls. No stated cut-off is given here; in the data, active = GI50 up to about 1.1 µM and inactive = higher.

Assays:
Assay in all cases: NCI-60 cell line screen, 48 h
SF-295 = test system: SF-295
OVCAR-4 = test system: OVCAR-4
SNB-19 = test system: SNB-19
OVCAR-5 = test system: OVCAR-5
HCT-116 = test system: HCT-116
SK-MEL-5 = test system: SK-MEL-5
HT-29 = test system: HT-29
SK-MEL-2 = test system: SK-MEL-2
MDA-MB-435 = test system: MDA-MB-435
KM12 = test system: KM12
PC-3 = test system: PC-3
COLO 205 = test system: COLO 205
LOX IMVI = test system: LOX IMVI
RPMI-8226 = test system: RPMI-8226
K562 = test system: K562
ACHN = test system: ACHN
IGROV-1 = test system: IGROV-1
SR = test system: SR
A498 = test system: A498
CAKI-1 = test system: CAKI-1

Row | SMILES | GI50 (SF-295) | GI50 (OVCAR-4) | GI50 (SNB-19) | GI50 (OVCAR-5) | GI50 (HCT-116) | GI50 (SK-MEL-5) | GI50 (HT-29) | GI50 (SK-MEL-2) | GI50 (MDA-MB-435) | GI50 (KM12) | GI50 (PC-3) | GI50 (COLO 205) | GI50 (LOX IMVI) | GI50 (RPMI-8226) | GI50 (K562) | GI50 (ACHN) | GI50 (IGROV-1) | GI50 (SR) | GI50 (A498) | GI50 (CAKI-1)
1 | Cc1ccc(C(=O)/C(C#N)=C/Nc2c(C)n(C)n(-c3ccccc3)c2=O)cc1 | > 100 µM (inactive) | > 100 µM (inactive) | > 100 µM (inactive) | > 100 µM (inactive) | > 100 µM (inactive) | > 100 µM (inactive) | > 100 µM (inactive) | > 100 µM (inactive) | > 100 µM (inactive) | > 100 µM (inactive) | > 100 µM (inactive) | > 100 µM (inactive) | > 100 µM (inactive) | > 100 µM (inactive) | > 100 µM (inactive) | > 100 µM (inactive) | > 100 µM (inactive) | > 100 µM (inactive) | > 100 µM (inactive) | > 100 µM (inactive)
2 | CCNC(=S)N/N=C1\C(=O)Nc2ccc([N+](=O)[O-])cc21 | 29.3 µM (inactive) | 25.6 µM (inactive) | 45.4 µM (inactive) | > 100 µM (inactive) | 27.7 µM (inactive) | 35.1 µM (inactive) | 49.5 µM (inactive) | > 100 µM (inactive) | 88.1 µM (inactive) | 52.7 µM (inactive) | 97.5 µM (inactive) | > 100 µM (inactive) | 61.4 µM (inactive) | > 100 µM (inactive) | 52.7 µM (inactive) | 31.2 µM (inactive) | 31.6 µM (inactive) | 31.3 µM (inactive) | 22.9 µM (inactive) | 11.9 µM (inactive)
3 | COn1cc(CO)c2ccccc21 | > 100 µM (inactive) | 34 µM (inactive) | > 100 µM (inactive) | 7.96 µM (inactive) | 45.3 µM (inactive) | 64.1 µM (inactive) | > 58.5 µM (inactive) | > 54.3 µM (inactive) | > 100 µM (inactive) | > 100 µM (inactive) | > 75.2 µM (inactive) | 51.4 µM (inactive) | > 100 µM (inactive) | 66.5 µM (inactive) | 31.2 µM (inactive) | 61.4 µM (inactive) | 22 µM (inactive) | 31.8 µM (inactive) | 1.82 µM (inactive) | 3.37 µM (inactive)
4 | CN(C)CCNC1=Nc2ccccc2C(=S)N2CSCC12 (stereo not drawn) | > 100 µM (inactive) | > 100 µM (inactive) | > 100 µM (inactive) | > 100 µM (inactive) | > 100 µM (inactive) | > 100 µM (inactive) | > 100 µM (inactive) | > 100 µM (inactive) | > 100 µM (inactive) | > 100 µM (inactive) | > 100 µM (inactive) | > 100 µM (inactive) | > 100 µM (inactive) | > 100 µM (inactive) | > 100 µM (inactive) | > 100 µM (inactive) | > 100 µM (inactive) | > 100 µM (inactive) | > 100 µM (inactive) | > 100 µM (inactive)
5 | C/C(=N\N=C(/S)N(C)C)c1cccnn1 | 0.879 µM (active) | 0.608 µM (active) | 1.46 µM (inactive) | 1.06 µM (active) | 0.369 µM (active) | 0.486 µM (active) | 0.569 µM (active) | 7.66 µM (inactive) | 1.42 µM (inactive) | 2.48 µM (inactive) | 0.385 µM (active) | 0.468 µM (active) | 0.495 µM (active) | 0.466 µM (active) | 0.794 µM (active) | 0.0796 µM (active) | 0.689 µM (active) | 0.293 µM (active) | 1.22 µM (inactive) | 0.853 µM (active)
6 | N/C(=N\Nc1nc2cc([N+](=O)[O-])ccc2o1)c1ccccn1 | 0.207 µM (active) | 0.179 µM (active) | 0.506 µM (active) | 0.137 µM (active) | 0.0369 µM (active) | 0.157 µM (active) | 0.0493 µM (active) | 0.167 µM (active) | 0.551 µM (active) | 0.372 µM (active) | 0.122 µM (active) | 0.0366 µM (active) | 0.071 µM (active) | 0.123 µM (active) | 0.0673 µM (active) | 0.0802 µM (active) | 0.147 µM (active) | 0.013 µM (active) | 0.248 µM (active) | 0.16 µM (active)
7 | COc1ccc(C(C#N)NCCCCCCNC(C#N)c2ccc(OC)cc2)cc1 (stereo not drawn) | > 100 µM (inactive) | > 100 µM (inactive) | > 100 µM (inactive) | > 100 µM (inactive) | > 100 µM (inactive) | > 100 µM (inactive) | > 100 µM (inactive) | > 100 µM (inactive) | > 100 µM (inactive) | > 100 µM (inactive) | > 100 µM (inactive) | > 100 µM (inactive) | > 100 µM (inactive) | > 100 µM (inactive) | > 100 µM (inactive) | > 100 µM (inactive) | > 100 µM (inactive) | > 100 µM (inactive) | > 100 µM (inactive) | > 100 µM (inactive)
8 | CCOC(=O)C1c2[nH]c3ccccc3c2CCN1C(=O)c1ccc(OC)o1 (stereo not drawn) | > 10 µM (inactive) | > 10 µM (inactive) | > 10 µM (inactive) | > 10 µM (inactive) |  | > 10 µM (inactive) | > 10 µM (inactive) | > 10 µM (inactive) | > 10 µM (inactive) | > 10 µM (inactive) | > 10 µM (inactive) | > 10 µM (inactive) | > 10 µM (inactive) | > 10 µM (inactive) | > 10 µM (inactive) | > 10 µM (inactive) | > 10 µM (inactive) | > 10 µM (inactive) | > 10 µM (inactive) | > 10 µM (inactive)
9 | C#C[C@]1(O)CC[C@H]2[C@@H]3CCC4=C/C(=N/NC(=O)c5cccc6cc7ccccc7nc56)CC[C@@H]4[C@H]3CC[C@@]21CC |  | > 100 µM (inactive) | > 100 µM (inactive) | 77.3 µM (inactive) | 60.5 µM (inactive) | 21.9 µM (inactive) | 41.4 µM (inactive) | > 100 µM (inactive) | 91.4 µM (inactive) | > 100 µM (inactive) | 62.2 µM (inactive) | 70.5 µM (inactive) | 48.9 µM (inactive) | 71.6 µM (inactive) | > 100 µM (inactive) | > 100 µM (inactive) | 87.9 µM (inactive) | 38.5 µM (inactive) | > 100 µM (inactive) | 29.3 µM (inactive)
10 | O=C1C(Cl)=C(N2C(=O)CCCC2=O)C(=O)c2ccccc21 | 82.2 µM (inactive) |  | > 10 µM (inactive) | 18 µM (inactive) | 16.8 µM (inactive) | 16.6 µM (inactive) | 15.7 µM (inactive) | 22.5 µM (inactive) | 21.8 µM (inactive) | 62.1 µM (inactive) | 19.6 µM (inactive) | 6.37 µM (inactive) | 20.6 µM (inactive) | 7.45 µM (inactive) | 2.7 µM (inactive) | 8.87 µM (inactive) | 15.8 µM (inactive) | 21.5 µM (inactive) | 16.8 µM (inactive) | 14 µM (inactive)
11 | O=C(NNc1ccc([N+](=O)[O-])cc1[N+](=O)[O-])/C(O)=C\C(=O)c1ccccc1 | 15.3 µM (inactive) | 22.6 µM (inactive) | 25.4 µM (inactive) | 19.7 µM (inactive) | 14.4 µM (inactive) | 20.7 µM (inactive) |  | 27.1 µM (inactive) | 30.5 µM (inactive) | 16.3 µM (inactive) | 20.3 µM (inactive) | 18.4 µM (inactive) | 24.5 µM (inactive) | 15.3 µM (inactive) | 25.1 µM (inactive) | 23.1 µM (inactive) | 17.9 µM (inactive) | 19.9 µM (inactive) | 28.9 µM (inactive) | 21.1 µM (inactive)
12 | CN(C)Cc1cc(/N=N/c2c(Cl)cccc2Cl)ccc1O | > 100 µM (inactive) | > 100 µM (inactive) | > 100 µM (inactive) |  | > 100 µM (inactive) | 17.5 µM (inactive) | 50.4 µM (inactive) | > 100 µM (inactive) | 88.9 µM (inactive) | > 100 µM (inactive) | > 100 µM (inactive) | > 100 µM (inactive) | 74.3 µM (inactive) | 74.8 µM (inactive) | 53.5 µM (inactive) | 56.4 µM (inactive) | 61.4 µM (inactive) | 48.9 µM (inactive) | 55.5 µM (inactive) | > 100 µM (inactive)
13 | O=C(C[n+]1ccccc1)N/N=C(\C(=O)NC1=C(Cl)C(=O)c2ccccc2C1=O)c1c(O)c2ccc(O)cc2oc1=O | 3.05 µM (inactive) | 3.08 µM (inactive) |  | 12.3 µM (inactive) | 2.99 µM (inactive) | 1.06 µM (active) | 3.08 µM (inactive) | 2.31 µM (inactive) | 2.01 µM (inactive) | 4.85 µM (inactive) | 2.77 µM (inactive) | 3.05 µM (inactive) | 2.63 µM (inactive) | 5.96 µM (inactive) | 1.91 µM (inactive) | 5.11 µM (inactive) | 2.41 µM (inactive) | 4.19 µM (inactive) | 19.9 µM (inactive) | 6.64 µM (inactive)
14 | Cc1c(NC(=S)NN)c(=O)n(-c2ccccc2)n1C | > 100 µM (inactive) | > 100 µM (inactive) | > 100 µM (inactive) | > 100 µM (inactive) | > 100 µM (inactive) | > 100 µM (inactive) | > 100 µM (inactive) | > 100 µM (inactive) | > 100 µM (inactive) | > 100 µM (inactive) | > 100 µM (inactive) | > 100 µM (inactive) | > 100 µM (inactive) | > 100 µM (inactive) | > 100 µM (inactive) |  | > 100 µM (inactive) | > 100 µM (inactive) | > 100 µM (inactive) | > 100 µM (inactive)
